Laboratory results taken from patent publication US11464749B2, “Bismuth-thiol compositions and methods of use” (Microbion Corporation, priority 2018, dated 2022).

Experiments:
Enterobacter cloacae = assay: Broth microdilution MIC (Example 11); conditions: ATCCBAA2468
Pseudomonas aeruginosa [1] = conditions: P. aeruginosa MMX 103 (ATCC 27853); CLSI QC ranges shown in parenthesis; cited from earlier work
Escherichia coli [2] = conditions: E. coli MMX 102 (ATCC 25922); CLSI QC ranges shown in parenthesis; cited from earlier work
Escherichia coli [3] = assay: Broth microdilution MIC (Example 11)
E. faecalis = assay: Broth microdilution MIC (Example 11); conditions: Enterococcus faecalis, VRE, VRE Lev^R Cip^R Ery^R
Klebsiella pneumoniae = assay: Broth microdilution MIC (Example 11)
Pseudomonas aeruginosa [4] = assay: Broth microdilution MIC (Example 11); conditions: Pseudomonas aeruginosa
[5] = system: Staphylococcus aureus (MRSA); assay: Broth microdilution MIC (Example 11)
Acinetobacter baumannii = assay: Broth microdilution MIC (Example 11); conditions: Acinetobacter baumannii
A. flavus = assay: Broth microdilution antifungal susceptibility (Example 13); type: cell-based; conditions: comparators, read time not given
Candida albicans = assay: as above; type: cell-based; conditions: 24 hr
Candida glabrata = assay: as above; type: cell-based
A. fumigatus = assay: as above; type: cell-based; conditions: comparators, read time not given
A. niger = assay: as above; type: cell-based; conditions: A. niger ATCC 29508; comparators, read time not given
Candida auris = assay: as above; type: cell-based
A. terreus = assay: as above; type: cell-based; conditions: A. terreus MMX 8229; comparators, read time not given
Candida krusei = assay: as above; type: cell-based

CC(C)(O/N=C(\C(=O)N[C@@H]1C(=O)N2C(C(=O)[O-])=C(C[n+]3ccccc3)CS[C@H]12)c1csc(N)n1)C(=O)O [Ceftazidime]
> 32 mg/L: MIC (Enterobacter cloacae) | MIC (Escherichia coli [3]; ATCCBAA2469, E. coli MMX 5980 (ATCC BAA-2469), NDM-1, Lev^R, MEM^R, CAZ^R, Gm^R) | MIC (E. faecalis; E. faecalis MMX 8960) | MIC (E. faecalis; E. faecalis MMX 8961) | MIC (E. faecalis; E. faecalis MMX 8962) | MIC (Klebsiella pneumoniae; K. pneumoniae MMX 4622, KPC-2, MEM^R, CAZ^R) | MIC (Klebsiella pneumoniae; K. pneumoniae MMX 4623, KPC-2, MEM^R, CAZ^R, GM^R) | MIC (Klebsiella pneumoniae; K. pneumoniae MMX 4653, KPC-3, Lev^R, MEM^R, CAZ^R) | MIC (Klebsiella pneumoniae; K. pneumoniae MMX 4683, KPC-2, Lev^R, MEM^R, CAZ^R) | MIC (Klebsiella pneumoniae; K. pneumoniae MMX 4685, ESBL, Lev^R, MEM^R, CAZ^R) | MIC (Klebsiella pneumoniae; K. pneumoniae MMX 4694, KPC-3, Lev^R, MEM^R, CAZ^R) | MIC (Klebsiella pneumoniae; K. pneumoniae MMX 5979, NDM-1, Lev^R, MEM^R, CAZ^R, Gm^R) | MIC (Pseudomonas aeruginosa [4]; P. aeruginosa MMX 2562, MDR, Lev^R, Cip^R, MEM^R, CAZ^R) | MIC (Pseudomonas aeruginosa [4]; P. aeruginosa MMX 4654, IMP-7, Lev^R, Cip^R, MEM^R, CAZ^R) | MIC ([5]; MRSA, S. aureus MMX 5373, MRSA Lev^R Cip^R CC^R Ery^R Ox^R) | MIC ([5]; MRSA, S. aureus MMX 6311, MRSA Lev^R Cip^R CC^R Ery^R Ox^R) | MIC ([5]; MRSA, S. aureus MMX 9203, MRSA Lev^R Cip^R Ery^R Ox^R) | MIC ([5]; MRSA, S. aureus MMX 9204, MRSA Lev^R Cip^R Ery^R Ox^R) | MIC ([5]; MRSA, S. aureus MMX 9205, MRSA Lev^R Cip^R CC^R Ery^R Ox^R) | MIC (Acinetobacter baumannii; NCTC13304, A. baumannii MMX 4651 (NCTC 13304), MDR, OXA-27, Lev^R, Cip^R, MEM^R, CAZ^R, Gm^I)
4 mg/L: MIC (Acinetobacter baumannii; A. baumannii MMX 3373, Sensitive)
32 mg/L: MIC (Escherichia coli [3]; E. coli MMX 8423, ESBL, Lev^R, CAZ^R, Gm^R) | MIC (Pseudomonas aeruginosa [4]; P. aeruginosa MMX 1381, MDR, Lev^R, Cip^R, MEM^R, CAZ^R) | MIC (Pseudomonas aeruginosa [4]; P. aeruginosa MMX 4697, VIM-2, Lev^R, Cip^R, MEM^R, CAZ^R) | MIC (Acinetobacter baumannii; A. baumannii MMX 2592, MDR, Lev^R, Cip^R, MEM^R, CAZ^R, Gm^R) | MIC (Acinetobacter baumannii; A. baumannii MMX 2593, MDR, Lev^R, Cip^R, MEM^R, CAZ^R, Gm^R)
16 mg/L: MIC (Escherichia coli [3]; E. coli MMX 8424, ESBL, CAZ^R) | MIC (Escherichia coli [3]; E. coli MMX 8425, ESBL, Lev^R, CAZ^R, Gm^R) | MIC (Pseudomonas aeruginosa [4]; P. aeruginosa MMX 3991, MDR, Lev^R, Cip^R, MEM^R, CAZ^R) | MIC (Acinetobacter baumannii; A. baumannii MMX 3372, MDR, Cip^R, MEM^I, CAZ^I)
2 mg/L: MIC (Pseudomonas aeruginosa [4]; ATCC27853, P. aeruginosa MMX 103 (ATCC 27853), QC)
0.12 mg/L: MIC (Escherichia coli [3]; ATCC25922, E. coli MMX 102 (ATCC 25922), QC)
(1-4) μg/mL: CLSI QC range of MIC (Pseudomonas aeruginosa [1])
8 mg/L: MIC (Klebsiella pneumoniae; K. pneumoniae MMX 4684, ESBL, MEM^R) | MIC ([5]; ATCC29213|MRSA|MSSA, S. aureus MMX 101 (ATCC 29213), QC, MSSA)
(0.06-0.5) μg/mL: CLSI QC range of MIC (Escherichia coli [2])

C[C@@H]1[C@H](O)[C@@H](C)/C=C/C=C/C=C/C=C/C=C/C=C/C=C/[C@H](O[C@@H]2O[C@H](C)[C@@H](O)[C@H](N)[C@@H]2O)C[C@@H]2O[C@](O)(C[C@@H](O)C[C@@H](O)[C@H](O)CC[C@@H](O)C[C@@H](O)CC(=O)O[C@H]1C)C[C@H](O)[C@H]2C(=O)O [AMP B]
0.5 µg/mL: MIC0 (complete inhibition) (Candida auris; isolate MMX 9866 (FLU-R, VORI-R)) | MIC0 (complete inhibition) (Candida auris; isolate MMX 9867 (FLU-R, VORI-R)) | MIC0 (complete inhibition) (Candida krusei; isolate ATCC 6258 (MICA-I)) | MIC0 (complete inhibition) (Candida krusei; isolate ATCC 96685 (Susceptible)) | MIC0 (complete inhibition) (Candida krusei; isolate MMX 7125 (Susceptible)) | MIC0 (complete inhibition) (Candida krusei; isolate MMX 7128 (Susceptible)) | MIC0 (complete inhibition) (Candida krusei; isolate MMX 7153 (MICA-R)) | MIC0 (complete inhibition) (Candida krusei; isolate MMX 7563 (Susceptible)) | MIC0 (complete inhibition) (Candida krusei; isolate MMX 9878 (MICA-I, VORI-I))
0.12 µg/mL: MIC0 (complete inhibition) (Candida albicans; isolate MMX 7053 (Susceptible)) | MIC0 (complete inhibition) (Candida albicans; isolate MMX 7445 (FLU-R, VORI-R)) | MIC0 (complete inhibition) (Candida glabrata; isolate ATCC MYA-2950 (Susceptible)) | MIC0 (complete inhibition) (Candida glabrata; isolate MMX 7087 (Susceptible)) | MIC0 (complete inhibition) (Candida auris; isolate MMX 9863 (FLU-R, VORI-R))
1 µg/mL: MIC0 (A. flavus; A. flavus ATCC 22546) | MIC0 (A. flavus; A. flavus ATCC 204304) | MIC0 (A. flavus; A. flavus MMX 7935) | MIC0 (A. fumigatus; A. fumigatus ATCC 204305) | MIC0 (A. fumigatus; A. fumigatus ATCC MYA-3626) | MIC0 (A. fumigatus; A. fumigatus MMX 5934) | MIC0 (A. fumigatus; A. fumigatus MMX 5938) | MIC0 (A. fumigatus; A. fumigatus MMX 5939) | MIC0 (complete inhibition) (Candida auris; isolate MMX 9869 (FLU-R, VORI-R)) | MIC0 (complete inhibition) (Candida auris; isolate MMX 9870 (FLU-R, VORI-R)) | MIC0 (complete inhibition) (Candida auris; isolate MMX 9871 (Susceptible))
0.25 µg/mL: MIC0 (complete inhibition) (Candida albicans; isolate ATCC 90028 (Susceptible)) | MIC0 (complete inhibition) (Candida albicans; isolate ATCC 204276 (MICA-R)) | MIC0 (complete inhibition) (Candida albicans; isolate ATCC MYA-2732 (FLU-R, VORI-I)) | MIC0 (complete inhibition) (Candida albicans; isolate MMX 7067 (FLU-R, VORI-R)) | MIC0 (complete inhibition) (Candida albicans; isolate MMX 7403 (Susceptible)) | MIC0 (complete inhibition) (Candida albicans; isolate MMX 7424 (CASP-R, MICA-R)) | MIC0 (complete inhibition) (Candida albicans; isolate MMX 7430 (Susceptible)) | MIC0 (complete inhibition) (Candida albicans; isolate MMX 7437 (FLU-I)) | MIC0 (complete inhibition) (Candida glabrata; isolate ATCC 90030 (Susceptible)) | MIC0 (complete inhibition) (Candida glabrata; isolate MMX 7093 (FLU-R)) | MIC0 (complete inhibition) (Candida glabrata; isolate MMX 7101 (FLU-R)) | MIC0 (complete inhibition) (Candida glabrata; isolate MMX 7103 (CASP-R, MICA-R)) | MIC0 (complete inhibition) (Candida glabrata; isolate MMX 7111 (Susceptible)) | MIC0 (complete inhibition) (Candida glabrata; isolate MMX 7285 (CASP-R, MICA-R)) | MIC0 (complete inhibition) (Candida glabrata; isolate MMX 7307 (CASP-R, MICA-R, FLU-R)) | MIC0 (complete inhibition) (Candida glabrata; isolate MMX 7549 (Susceptible)) | MIC0 (A. niger) | MIC0 (complete inhibition) (Candida auris; isolate MMX 9862 (Susceptible)) | MIC0 (complete inhibition) (Candida auris; isolate MMX 9864 (FLU-R, VORI-R)) | MIC0 (complete inhibition) (Candida auris; isolate MMX 9865 (FLU-R, VORI-R)) | MIC0 (complete inhibition) (Candida auris; isolate MMX 9868 (FLU-R, VORI-R)) | MIC0 (A. terreus) | MIC0 (complete inhibition) (Candida krusei; isolate ATCC 14243 (Susceptible)) | MIC0 (complete inhibition) (Candida krusei; isolate MMX 7141 (Susceptible)) | MIC0 (complete inhibition) (Candida krusei; isolate MMX 7155 (Susceptible))
